SMILES strings stand for the structures. Where only a bound is given, the exact number is not on record here.

In experiment [1] the test system is HCC827. Put plainly: CCK-8 tumor cell proliferation, HCC827. The experiment is classed as cell-based, Human. To be noted: Table 11, designed based on EGFR inhibitors; 96 h.
The subject of experiment [2] is PC-9. The experiment is described as follows: CCK-8 tumor cell proliferation, PC-9. To be noted: Table 11, designed based on EGFR inhibitors; 96 h. It counts as cell-based, Human.
The subject of experiment [3] is NCI-H358. Put plainly: CCK-8 tumor cell proliferation, NCI-H358. Set-up: species or system Human. To be noted: Table 11, designed based on EGFR inhibitors; 96 h. Here is the method: The tumor cells used herein were cultured in a cell culture medium listed in table 4 at 37° C. in an incubator with 5% CO2.
(§1) After 24 h, 100 μL of the inoculated cells were treated with 0.5 μL of the compounds of the present disclosure (including the compounds in Tables 1 and 3, and compounds of examples) at 10 different successively decreasing concentrations (starting at the highest concentration of 10 μM; 5-fold serial dilutions). After the cells were treated with the compounds of the present disclosure for a period of time, the cell viability detection reagent was added to the culture medium for cell viability assessment according to the instructions provided with the CCK-8 kit. […] The growth inhibition of the compounds of the present disclosure on cells was plotted by Prism Graphpad software, and the IC50 values of the compounds of the present disclosure were calculated therefrom.

For experiment [4], the system named is CCRF-CEM. Put plainly: CCK-8 tumor cell proliferation, CCRF-CEM. It counts as cell-based, Human. Further details: IC50 for inhibiting the proliferation of tumor cells, CCRF-CEM: scale not given here. Particulars: for IC50 for inhibiting the proliferation of tumor cells, CCRF-CEM: Table 16, designed based on BET inhibitors, 96 h; for IC50: Homo sapiens, Table 19, IRAK4 inhibitor based, CCRF-CEM, read-out: IC50 inhibiting proliferation of tumor cells, CCRF-CEM. The essentials:
(§2)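 Ten-point titrations (10 μM highest, 5-fold steps) were applied to cells 24 h after seeding. After treatment at 37 °C, 5% CO2, cell viability was read with CCK-8 and IC50 values were computed from the resulting inhibition curves.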

Experiment [5] has as its system Mino. The experiment is described as follows: CCK-8 tumor cell proliferation, Mino. The experiment is classed as cell-based, Human. To be noted: for IC50 for inhibiting the proliferation of tumor cells, Mino: Table 16, designed based on BET inhibitors, 72 h; for IC50: Homo sapiens, Table 19, IRAK4 inhibitor based, Mino, read-out: IC50 inhibiting proliferation of tumor cells, Mino. The essentials:
as §2

The test system of experiment [6] is PC-3. Put plainly: CCK-8 tumor cell proliferation, PC-3. It counts as cell-based, Human. Particulars: 96 h. Here is the method: (§3) The tumor cells used herein were cultured in a cell culture medium listed in table 4 at 37° C. in an incubator with 5% CO2. Prior to experimentation, all cells used were correctly identified by STR profiling, and tested negative for mycoplasma through routine screenings.
as §1, with “IC50 values of the compounds of the present disclosure (including the compounds in Tables 1 and 3, and compounds of examples) were measured using the Meilun Cell Counting Kit-8 kit from Dalian Meilun Biotech Co., Ltd. Assay details are as follows: tumor cells were seeded in a 96-well plate at a density listed in Table 5. After 24” for “After 24”

The subject of experiment [7] is SU-DHL-4. Put plainly: CCK-8 tumor cell proliferation, SU-DHL-4. It counts as cell-based, Human. Particulars: Homo sapiens, Table 19, IRAK4 inhibitor based, read-out: IC50 inhibiting proliferation of tumor cells, SU-DHL-4. The essentials: as §2
Experiment [8] concerns Kasumi-1. Put plainly: CCK-8 tumor cell proliferation, Kasumi-1. The experiment is classed as cell-based, Human. To be noted: for IC50: Homo sapiens, Table 19, IRAK4 inhibitor based, Kasumi-1, read-out: IC50 inhibiting proliferation of tumor cells, Kasumi-1. The essentials: as §2
Experiment [9] relates to MV-4-11. Put plainly: CCK-8 tumor cell proliferation, MV-4-11. The experiment is classed as cell-based, Human. Particulars: Homo sapiens, MV4-11; Table 19, IRAK4 inhibitor based; MV-4-11; read-out: IC50 inhibiting proliferation of tumor cells, MV-4-11. The essentials: as §2
Experiment [10] concerns MM.1R. The experiment is described as follows: CCK-8 tumor cell proliferation, MM.1R. It counts as cell-based. Particulars: Table 19, IRAK4 inhibitor based, read-out: IC50 inhibiting proliferation of tumor cells, MM.1R. The essentials: as §2
The test system of experiment [11] is SW620. Put plainly: CCK-8 tumor cell proliferation, SW620. The experiment is classed as cell-based, Human. Particulars: Homo sapiens, SW-620; Table 19, IRAK4 inhibitor based; SW620; read-out: IC50 inhibiting proliferation of tumor cells, SW620. Summed up:
as §2

The test system of experiment [12] is NCI-H1666. Put plainly: CCK-8 tumor cell proliferation, NCI-H1666. It counts as cell-based, Human. Particulars: Homo sapiens, Table 19, IRAK4 inhibitor based, read-out: IC50 inhibiting proliferation of tumor cells, NCI-H1666. Here is the method:
as §3
as §1, with “IC50 values of the compounds of the present disclosure (including the compounds in Tables 1 and 3, and compounds of examples) were measured using the Meilun Cell Counting Kit-8 kit from Dalian Meilun Biotech Co., Ltd. Assay details are as follows: tumor cells were seeded in a 96-well plate at a density listed in Table 5. After 24” for “After 24”

For experiment [13], the system named is Jurkat. Put plainly: CCK-8 tumor cell proliferation, Jurkat. The experiment is classed as cell-based, Human. Particulars: Homo sapiens, Table 19, IRAK4 inhibitor based, read-out: IC50 inhibiting proliferation of tumor cells, Jurkat. Summed up:
as §2

Experiment [14] has as its system CAL-62. The experiment is described as follows: CCK-8 tumor cell proliferation, CAL-62. It counts as cell-based, Human. To be noted: Homo sapiens; Table 19, IRAK4 inhibitor based; CAL-62; read-out: IC50 inhibiting proliferation of tumor cells, CAL-62. Summed up:
as §2

[15] abbreviates: Table 16, designed based on BET inhibitors.

With `COc1cc2ncnc(Nc3ccc(F)c(Cl)c3)c2cc1NC(=O)/C=C/CN1CCN(Cc2ccc3c(c2)CN(C2CCC(=O)NC2=O)C3=O)CC1` (centres unmarked) [GT-03265, (E)-N-(4-((3-chloro-4-fluorophenyl)amino)-7-methoxyquinazolin-6-yl)-4-(4-((2-(2,6-dioxopiperidin-3-yl)-1-oxoisoindolin-5-yl)methyl)piperazin-1-yl)but-2-enamide], the “IC50 for inhibiting the proliferation of tumor cells, HCC827” value in [1] is on record as “A+”. Also, in experiment [2], the “IC50 for inhibiting the proliferation of tumor cells, PC-9” value is reported as “A+”. In experiment [3], the “IC50 for inhibiting the proliferation of tumor cells, NCI-H358” value is reported as “A+”.
Consider `COc1cc(OC)c2c(=O)[nH]c(-c3ccc(N4CCC(N5CCN(Cc6ccc7c(c6)CN(C6CCC(=O)NC6=O)C7=O)CC5)CC4)cc3)nc2c1` (centres unmarked) [GT-03708, 3-(5-((4-(1-(4-(5,7-dimethoxy-4-oxo-3,4-dihydroquinazolin-2-yl)phenyl)piperidin-4-yl)piperazin-1-yl)methyl)-1-oxoisoindolin-2-yl)piperidine-2,6-dione], for which the “IC50 for inhibiting the proliferation of tumor cells, CCRF-CEM” value in experiment [4] is “A+”. Moreover, in [5], the “IC50 for inhibiting the proliferation of tumor cells, Mino” value is reported as “A+”. For the same compound, the “IC50 for inhibiting the proliferation of tumor cells, PC-3” value in experiment [6] (setting [15]) was “A+”.
As to `Cc1sc2c(c1C)C(c1ccc(Cl)cc1)=N[C@@H](CC(=O)OC(C)(C)C)c1nnc(C)n1-2` [JQ-1, reference compound], the IC50 in experiment [6] (Table 16, designed based on BET inhibitors, read-out: IC50 for inhibiting the proliferation of tumor cells, PC-3) is > 10000 nM.
Regarding `COc1cc2ncnc(Nc3ccc(Cl)c(Cl)c3F)c2cc1OC1CCN(Cc2ccc3c(c2)CN(C2CCC(=O)NC2=O)C3=O)CC1` (centres unmarked) [GT-03412, 3-(5-((4-((4-((3,4-dichloro-2-fluorophenyl)amino)-7-methoxyquinazolin-6-yl)oxy)piperidin-1-yl)methyl)-1-oxoisoindolin-2-yl)piperidine-2,6-dione], the “IC50 for inhibiting the proliferation of tumor cells, PC-9” value in experiment [2] is given as “A+”. Further, the “IC50 for inhibiting the proliferation of tumor cells, NCI-H358” value in experiment [3] is listed as “A+”.
Consider `O=C1CCC(N2Cc3cc(CN4CCC(n5cc(NC(=O)c6cnn7ccc(N8CCOCC8)nc67)c(C(F)F)n5)CC4)ccc3C2=O)C(=O)N1` (centres unmarked) [GT-03809, N-(3-(difluoromethyl)-1-(1-((2-(2,6-dioxopiperidin-3-yl)-1-oxoisoindolin-5-yl)methyl)piperidin-4-yl)-1H-pyrazol-4-yl)-5-morpholinopyrazolo[1,5-a]pyrimidine-3-carboxamide], for which the IC50 was 500 to 1000 nM in experiment [7]; < 50 nM in experiment [4]; < 50 nM in experiment [8]; < 50 nM in experiment [5]; < 50 nM in experiment [9]; < 50 nM in experiment [10]. In addition, the IC50 was < 50 nM in experiment [11], 500 to 1000 nM in experiment [12], < 50 nM in experiment [13] and < 50 nM in experiment [14].
As for `Cc1sc2c(c1C)C(c1ccc(Cl)cc1)=N[C@@H](CC(=O)NCCN1CCN(Cc3ccc4c(c3)CN(C3CCC(=O)NC3=O)C4=O)CC1)c1nnc(C)n1-2` (stereo partly drawn) [GT-03296, 2-((S)-4-(4-chlorophenyl)-2,3,9-trimethyl-6H-thieno[3,2-f][1,2,4]triazolo[4,3-a][1,4]diazepin-6-yl)-N-(2-(4-((2-(2,6-dioxopiperidin-3-yl)-1-oxoisoindolin-5-yl)methyl)piperazin-1-yl)ethyl)acetamide], the “IC50 for inhibiting the proliferation of tumor cells, CCRF-CEM” value in experiment [4] is listed as “A+”. Moreover, the “IC50 for inhibiting the proliferation of tumor cells, Kasumi-1” value in experiment [8] (Table 16, designed based on BET inhibitors, 72 h) is “A+”. Also, in experiment [5], the “IC50 for inhibiting the proliferation of tumor cells, Mino” value is listed as “A+”. Besides, the “IC50 for inhibiting the proliferation of tumor cells, PC-3” value in experiment [6] (setting [15]) was “A+”.
As for `O=C1CCC(N2Cc3cc(CN4CCC(n5cc(NC(=O)c6cnn7ccc(N8CCOCC8)nc67)c(C(F)F)n5)CC4)c(F)cc3C2=O)C(=O)N1` (centres unmarked) [GT-03811, N-(3-(difluoromethyl)-1-(1-((2-(2,6-dioxopiperidin-3-yl)-6-fluoro-1-oxoisoindolin-5-yl)methyl)piperidin-4-yl)-1H-pyrazol-4-yl)-5-morpholinopyrazolo[1,5-a]pyrimidine-3-carboxamide], the IC50 in experiment [7] is 100 to 500 nM; in [4], < 50 nM; in experiment [8], < 50 nM; in [5], < 50 nM; in [9] it was < 50 nM; in experiment [10] it was < 50 nM. The IC50 in experiment [11] is < 50 nM; in experiment [12], 50 to 100 nM; in experiment [13], < 50 nM; in experiment [14], < 50 nM.
As for `O=C1CCC(N2Cc3c(ccc(CN4CCC(n5cc(NC(=O)c6cnn7ccc(N8CCOCC8)nc67)c(C(F)F)n5)CC4)c3F)C2=O)C(=O)N1` (centres unmarked) [GT-03810, N-(3-(difluoromethyl)-1-(1-((2-(2,6-dioxopiperidin-3-yl)-4-fluoro-1-oxoisoindolin-5-yl)methyl)piperidin-4-yl)-1H-pyrazol-4-yl)-5-morpholinopyrazolo[1,5-a]pyrimidine-3-carboxamide], the IC50 in experiment [7] is 100 to 500 nM; in [4], < 50 nM; in experiment [8] it was < 50 nM; in experiment [5], < 50 nM; in [9], < 50 nM; in experiment [10] it was < 50 nM. Moreover, the IC50 was < 50 nM in experiment [11], 100 to 500 nM in [12], < 50 nM in [13] and < 50 nM in experiment [14].
For the compound `N#Cc1ccc(O[C@H]2CC[C@H](NC(=O)c3ccc(N4CCC(N5CCN(Cc6ccc7c(c6)CN(C6CCC(=O)NC6=O)C7=O)CC5)CC4)nn3)CC2)cc1Cl` (some centres unmarked) [GT-02989, N-((1r,4r)-4-(3-chloro-4-cyanophenoxy)cyclohexyl)-6-(4-(4-((2-(2,6-dioxopiperidin-3-yl)-1-oxoisoindolin-5-yl)methyl)piperazin-1-yl)piperidin-1-yl)pyridazine-3-carboxamide], in experiment [6] (Table 10, designed based on AR inhibitors), the “IC50 for inhibiting the proliferation of tumor cells, PC-3” value is “A+”.
On to `COc1cc2ncnc(Nc3ccc(Cl)c(Cl)c3F)c2cc1OCc1ccc2c(c1)CN(C1CCC(=O)NC1=O)C2=O` (centres unmarked) [GT-03354, 3-(5-(((4-((3,4-dichloro-2-fluorophenyl)amino)-7-methoxyquinazolin-6-yl)oxy)methyl)-1-oxoisoindolin-2-yl)piperidine-2,6-dione], for which the “IC50 for inhibiting the proliferation of tumor cells, NCI-H358” value in experiment [3] is given as “A+”.
For `C=CC(=O)Nc1cc2c(Nc3ccc(F)c(Cl)c3)ncnc2cc1OCCCN1CCN(Cc2ccc3c(c2)CN(C2CCC(=O)NC2=O)C3=O)CC1` (centres unmarked) [GT-03411, N-(4-((3-chloro-4-fluorophenyl)amino)-7-(3-(4-((2-(2,6-dioxopiperidin-3-yl)-1-oxoisoindolin-5-yl)methyl)piperazin-1-yl)propoxy)quinazolin-6-yl)acrylamide], the “IC50 for inhibiting the proliferation of tumor cells, PC-9” value in experiment [2] is recorded as “A+”. Further, the “IC50 for inhibiting the proliferation of tumor cells, NCI-H358” value in [3] is on record as “A+”.

The values above are taken from patent US20260199323A1, “LIGAND COMPOUNDS FOR E3 UBIQUITIN LIGASE, PROTEIN DEGRADERS DEVELOPED ON BASIS OF LIGAND COMPOUNDS, AND USES THEREOF” (GLUETACS THERAPEUTICS (SHANGHAI) CO., LTD., priority 2021, published 2026).
